Some test systems named below: 786-0 renal; SNB-78 CNS; HL-60(TB) leukemia; MOLT-4 leukemia; MALME-3M melanoma; SK-MEL-28 melanoma; LXFL 529 NSCLC; LOX IMVI melanoma; MCF7 breast; PC-3 prostate.
Holding throughout (assay): growth of human tumour cells (NCI), 48 h

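These data come from cells grown in 96-well plates and exposed to compound for 48 hours at five concentrations. Abbreviation: GI50, concentration required for 50% inhibition of growth. At the TGI there is no net growth.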

For the molecule `Cc1cc2c(cc1C)[n+](=O)c(C(=O)/C=C/c1ccccc1Cl)c(C)n2[O-]`, the TGI with 786-0 renal was 30.3 µM; in the assay on SNB-78 CNS, > 100 µM; with HL-60(TB) leukemia, 99.6 µM; with MOLT-4 leukemia, > 100 µM; in the assay on MALME-3M melanoma, 94.5 µM; in the assay with SK-MEL-28 melanoma it was 86.8 µM. For the same molecule, the TGI was 34.6 µM with LXFL 529 NSCLC and > 100 µM in the assay on LOX IMVI melanoma.

For `O=C(O)C1OC(Oc2cc(O)c3c(=O)cc(-c4ccc(O)cc4)oc3c2)C(O)C(O)C1O` (stereo not drawn), the TGI in the assay on 786-0 renal, in the assay on SNB-78 CNS, in the assay on HL-60(TB) leukemia, in the assay on MALME-3M melanoma, in the assay with SK-MEL-28 melanoma and in the assay on LXFL 529 NSCLC was > 100 µM in each case. For the same molecule, the TGI in the assay on LOX IMVI melanoma is > 100 µM.

For the molecule `COc1cc(-c2cc(CCC(=O)Nc3ccccc3[N+](=O)[O-])n(-c3ccc([N+](=O)[O-])cc3[N+](=O)[O-])n2)ccc1O`, the GI50 with 786-0 renal, in the assay on SNB-78 CNS, with HL-60(TB) leukemia, in the assay with MOLT-4 leukemia, in the assay with MALME-3M melanoma and in the assay on SK-MEL-28 melanoma was > 100 µM each time. Further, the figures for the GI50 with LXFL 529 NSCLC and in the assay on LOX IMVI melanoma were > 10 µM and > 100 µM, respectively. Besides, the TGI in the assay on 786-0 renal, in the assay with SNB-78 CNS, in the assay on HL-60(TB) leukemia, in the assay on MOLT-4 leukemia, in the assay on MALME-3M melanoma and in the assay with SK-MEL-28 melanoma was > 100 µM throughout. For the same molecule, the TGI in the assay with LXFL 529 NSCLC and in the assay on LOX IMVI melanoma was > 100 µM each time.

With `Cc1cccc(NC(=O)CC#N)c1Cl`, the TGI in the assay with 786-0 renal, in the assay with SNB-78 CNS, in the assay on HL-60(TB) leukemia, with MOLT-4 leukemia, in the assay on MALME-3M melanoma and in the assay on SK-MEL-28 melanoma was > 100 µM throughout. Further, the TGI in the assay with LXFL 529 NSCLC and in the assay on LOX IMVI melanoma was > 100 µM throughout.

For the molecule `N#CC1=C(c2ccccc2)C(O)(c2ccccc2)NC1=O` (stereo not drawn), the TGI in the assay on 786-0 renal is > 100 µM; in the assay with HL-60(TB) leukemia, > 100 µM; with MOLT-4 leukemia, > 100 µM; in the assay on MALME-3M melanoma, 74 µM; in the assay on SK-MEL-28 melanoma, > 100 µM; in the assay on LXFL 529 NSCLC, > 100 µM. In the assay with LOX IMVI melanoma, the TGI was > 100 µM.

Regarding `Oc1cc2c(cc1O)-c1[nH]ncc1CC2`, the TGI with 786-0 renal was > 100 µM; in the assay on SNB-78 CNS, > 100 µM; with HL-60(TB) leukemia, 76.6 µM; in the assay with MOLT-4 leukemia, 88.8 µM; with MALME-3M melanoma, > 100 µM; with SK-MEL-28 melanoma it was > 100 µM. The TGI in the assay on LXFL 529 NSCLC and with LOX IMVI melanoma was > 100 µM in each case.

As to `CC(C)CC(=O)NS(=O)(=O)c1ccccc1`, the TGI in the assay on 786-0 renal, with SNB-78 CNS, with HL-60(TB) leukemia, with MOLT-4 leukemia, with MALME-3M melanoma and with SK-MEL-28 melanoma was > 100 µM throughout. Also, the TGI with LXFL 529 NSCLC and with LOX IMVI melanoma was > 100 µM in each case.

For the molecule `O=C([O-])c1ccccc1Nc1ccccc1[O-].[Ni+3].[OH3+].[OH3+].[OH3+]`, the GI50 in the assay with 786-0 renal, in the assay with SNB-78 CNS, with MOLT-4 leukemia, with MALME-3M melanoma, with SK-MEL-28 melanoma and in the assay on LXFL 529 NSCLC was > 100 µM throughout. Moreover, in the assay with LOX IMVI melanoma, the GI50 is > 100 µM. In addition, the TGI in the assay with 786-0 renal, in the assay on SNB-78 CNS, in the assay on MOLT-4 leukemia, in the assay on MALME-3M melanoma, in the assay on SK-MEL-28 melanoma and in the assay with LXFL 529 NSCLC was > 100 µM throughout. The TGI in the assay on LOX IMVI melanoma is > 100 µM.

As for `O=C(c1ccc2c3c(ccc(C(=O)C(F)(F)F)c13)CC2)C(F)(F)F`, the TGI with 786-0 renal, in the assay with SNB-78 CNS, in the assay with MOLT-4 leukemia, in the assay with MALME-3M melanoma, in the assay with SK-MEL-28 melanoma and with LXFL 529 NSCLC was > 100 µM in each case. For the same molecule, the TGI in the assay on LOX IMVI melanoma was > 100 µM.

As for `CC(Oc1ccc2cc(C(=O)c3ccccc3)c(=O)oc2c1)C(=O)O` (stereo not drawn), the TGI in the assay with 786-0 renal, with SNB-78 CNS, in the assay on HL-60(TB) leukemia, in the assay on MOLT-4 leukemia, in the assay on MALME-3M melanoma and in the assay with SK-MEL-28 melanoma was > 100 µM in each case. In addition, the TGI in the assay with LXFL 529 NSCLC and in the assay with LOX IMVI melanoma was > 100 µM throughout.

For `ClC[Si]12OCCN(CCO1)CCO2`, the TGI in the assay on 786-0 renal, in the assay with SNB-78 CNS, with HL-60(TB) leukemia, in the assay with MOLT-4 leukemia, in the assay with MALME-3M melanoma and in the assay on SK-MEL-28 melanoma was > 100 µM in each case. The TGI in the assay with LXFL 529 NSCLC is > 100 µM.

For `CC1(C)OC(=O)C(=C2CC(c3ccccc3)c3ccccc32)C(=O)O1` (stereo not drawn), the TGI in the assay on 786-0 renal, in the assay on SNB-78 CNS, in the assay on HL-60(TB) leukemia, in the assay with MOLT-4 leukemia, in the assay with MALME-3M melanoma and with SK-MEL-28 melanoma was > 100 µM in each case. Moreover, the TGI in the assay with LXFL 529 NSCLC and in the assay on LOX IMVI melanoma was > 100 µM each time.

Take `C=C1C(=O)OC2/C=C(\C)C3OC3/C=C(/C(=O)OC)C(OC(C)=O)C(OC(=O)C(C)(O)C(C)OC(C)=O)C12` (stereo not drawn): the TGI with 786-0 renal was determined as 8.27 µM; in the assay with SNB-78 CNS it was 12.4 µM; in the assay with MOLT-4 leukemia, 3.68 µM; in the assay with MALME-3M melanoma, 7.88 µM; with MCF7 breast, 2.67 µM; in the assay on SK-MEL-28 melanoma, 6.14 µM. Also, the TGI stood at 2.36 µM in the assay on LXFL 529 NSCLC, 14.8 µM with PC-3 prostate and 3.61 µM in the assay on LOX IMVI melanoma.

`COc1ccc(/C(C)=N/NC(N)=S)c(OC)c1`: the TGI in the assay with 786-0 renal, with SNB-78 CNS, in the assay with HL-60(TB) leukemia, with MOLT-4 leukemia, in the assay with MALME-3M melanoma and with SK-MEL-28 melanoma was > 100 µM throughout. Further, the TGI in the assay with LXFL 529 NSCLC and in the assay on LOX IMVI melanoma was > 100 µM each time.

Take `O=C1C(N2C(=O)c3ccccc3C2=O)CN1C(COCc1ccccc1)c1ccc(OCc2ccccc2)cc1` (stereo not drawn): the TGI in the assay on 786-0 renal, with SNB-78 CNS, with HL-60(TB) leukemia, in the assay with MOLT-4 leukemia, in the assay with MALME-3M melanoma and with SK-MEL-28 melanoma was > 100 µM throughout. Moreover, the TGI with LXFL 529 NSCLC and in the assay on LOX IMVI melanoma was > 100 µM in each case.

As for `CN(C)/C(N)=N/C(N)=S`, the TGI in the assay with 786-0 renal, with SNB-78 CNS, with HL-60(TB) leukemia, in the assay on MOLT-4 leukemia, in the assay with MALME-3M melanoma and with SK-MEL-28 melanoma was > 100 µM in each case. The TGI in the assay on LXFL 529 NSCLC and in the assay with LOX IMVI melanoma was > 100 µM each time.

Regarding `CCC(/C(=N\Nc1c(Cl)cc(Cl)cc1Cl)c1ccccc1)n1ccnc1C` (stereo not drawn), the TGI in the assay with 786-0 renal was 25.6 µM; with SNB-78 CNS it was 42.2 µM; with HL-60(TB) leukemia, 14.6 µM; in the assay on MOLT-4 leukemia, 37.1 µM; with MALME-3M melanoma, 24.8 µM; in the assay on SK-MEL-28 melanoma, 29.7 µM. Moreover, the TGI stood at 25.8 µM in the assay with LXFL 529 NSCLC and 26.8 µM in the assay on LOX IMVI melanoma.

On to `CC1=C(c2cc(C(=O)Nc3nccs3)nc(NC#N)n2)Sc2ccccc2N1`, for which the TGI in the assay on 786-0 renal, in the assay with HL-60(TB) leukemia, in the assay on MOLT-4 leukemia, in the assay on MALME-3M melanoma, in the assay on SK-MEL-28 melanoma and in the assay with LXFL 529 NSCLC was > 100 µM throughout.

`COc1ccc(C(=O)O)c(Cc2ccc3ccccc3c2)c1`: the TGI with 786-0 renal, in the assay on SNB-78 CNS, with HL-60(TB) leukemia, in the assay on MOLT-4 leukemia, in the assay on MALME-3M melanoma and with SK-MEL-28 melanoma was > 100 µM in each case. Besides, the TGI in the assay on LXFL 529 NSCLC and with LOX IMVI melanoma was > 100 µM throughout.

With `CC(=O)OCC1OC(Sc2ccccn2)C=CC1OC(C)=O` (stereo not drawn), the TGI with 786-0 renal, with HL-60(TB) leukemia, in the assay with MOLT-4 leukemia, with MALME-3M melanoma, with SK-MEL-28 melanoma and in the assay with LXFL 529 NSCLC was > 100 µM in each case. The TGI in the assay on LOX IMVI melanoma was > 100 µM.

The values above are taken from PubChem BioAssay (NCI).
